In ChEMBL document CHEMBL4507319 (2021):

Experiments:
[1] = biological target: Histamine H2 receptor (Homo sapiens) (UniProt P25021); details: Compound concentration 10.0 uM
[2] = biological target: Tyrosine-protein kinase ABL2 (Homo sapiens) (UniProt P42684); experiment: Arg(h) Eurofins kinase panel; details: Compound concentration 1.0 uM
[3] = biological target: Protein-tyrosine kinase 6 (Homo sapiens) (UniProt Q13882); experiment: BRK(h) Eurofins kinase panel; details: Compound concentration 1.0 uM
[4] = biological target: Calcium/calmodulin-dependent protein kinase type 1G (Homo sapiens) (UniProt Q96NX5); experiment: CaMKIgamma(h) Eurofins kinase panel; details: Compound concentration 1.0 uM
[5] = biological target: CDK6/cyclin D3 (Homo sapiens) (UniProt P30281+Q00534); experiment: CDK6/cyclinD3(h) Eurofins kinase panel; format: protein-complex assay; details: Compound concentration 1.0 uM
[6] = biological target: CDK18/Cyclin Y (Homo sapiens) (UniProt Q07002+Q8ND76); experiment: CDK18/cyclinY(h) Eurofins kinase panel; format: protein-complex assay; details: Compound concentration 1.0 uM
[7] = biological target: Casein kinase I isoform delta (Homo sapiens) (UniProt P48730); experiment: CK1delta(h) Eurofins kinase panel; details: Compound concentration 1.0 uM
[8] = biological target: Mast/stem cell growth factor receptor Kit (Homo sapiens) (UniProt P10721); experiment: cKit(h) Eurofins kinase panel; details: Compound concentration 1.0 uM
[9] = biological target: Tyrosine-protein kinase CSK (Homo sapiens) (UniProt P41240); experiment: CSK(h) Eurofins kinase panel; details: Compound concentration 1.0 uM
[10] = biological target: RAF proto-oncogene serine/threonine-protein kinase (Homo sapiens) (UniProt P04049); experiment: c-RAF(h) Eurofins kinase panel; details: Compound concentration 1.0 uM
[11] = biological target: Death-associated protein kinase 2 (Homo sapiens) (UniProt Q9UIK4); experiment: DAPK2(h) Eurofins kinase panel; details: Compound concentration 1.0 uM
[12] = biological target: Epidermal growth factor receptor (Homo sapiens) (UniProt P00533); experiment: EGFR(h) Eurofins kinase panel; details: Compound concentration 1.0 uM
[13] = biological target: Fibroblast growth factor receptor 3 (Homo sapiens) (UniProt P22607); experiment: FGFR3(h) Eurofins kinase panel; details: Compound concentration 1.0 uM
[14] = biological target: Insulin receptor-related protein (Homo sapiens) (UniProt P14616); experiment: IRR(h) Eurofins kinase panel; details: Compound concentration 1.0 uM
[15] = biological target: Tyrosine-protein kinase JAK1 (Homo sapiens) (UniProt P23458); experiment: JAK1(h) Eurofins kinase panel; details: Compound concentration 1.0 uM
[16] = biological target: Tyrosine-protein kinase Lyn (Homo sapiens) (UniProt P07948); experiment: Lyn(h) Eurofins kinase panel; details: Compound concentration 1.0 uM
[17] = biological target: Serine/threonine-protein kinase mTOR (Homo sapiens) (UniProt P42345); experiment: mTOR(h) Eurofins kinase panel; details: Compound concentration 1.0 uM
[18] = biological target: T1, Serine/threonine-protein kinase Nek2 (Homo sapiens) (UniProt P51955); experiment: NEK2(h) Eurofins kinase panel; details: Compound concentration 1.0 uM
T1 sequence (whole entry): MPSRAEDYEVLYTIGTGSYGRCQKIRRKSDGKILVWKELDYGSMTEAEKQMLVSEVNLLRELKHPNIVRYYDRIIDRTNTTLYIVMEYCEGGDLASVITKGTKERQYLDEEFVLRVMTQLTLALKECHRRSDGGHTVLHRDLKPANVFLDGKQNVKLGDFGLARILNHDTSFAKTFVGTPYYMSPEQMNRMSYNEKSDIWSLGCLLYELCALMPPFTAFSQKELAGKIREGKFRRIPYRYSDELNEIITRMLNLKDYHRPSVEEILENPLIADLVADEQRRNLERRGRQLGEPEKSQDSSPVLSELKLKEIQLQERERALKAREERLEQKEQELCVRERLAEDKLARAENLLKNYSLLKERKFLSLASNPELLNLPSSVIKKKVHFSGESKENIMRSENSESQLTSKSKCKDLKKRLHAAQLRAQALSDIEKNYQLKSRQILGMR

[19] = biological target: Serine/threonine-protein kinase PAK 5 (Homo sapiens) (UniProt Q9P286); experiment: PAK5(h) Eurofins kinase panel; details: Compound concentration 1.0 uM
[20] = biological target: Serine/threonine-protein kinase pim-1 (Homo sapiens) (UniProt P11309); experiment: Pim-1(h) Eurofins kinase panel; details: Compound concentration 1.0 uM
[21] = biological target: Protein kinase C gamma type (Homo sapiens) (UniProt P05129); experiment: PKCgamma(h) Eurofins kinase panel; details: Compound concentration 1.0 uM
[22] = biological target: Proto-oncogene tyrosine-protein kinase ROS (Homo sapiens) (UniProt P08922); experiment: Ros(h) Eurofins kinase panel; details: Compound concentration 1.0 uM
[23] = biological target: T2, Mitogen-activated protein kinase 12 (Homo sapiens) (UniProt P53778); experiment: SAPK3(h) Eurofins kinase panel; details: Compound concentration 1.0 uM
T2 sequence (whole entry): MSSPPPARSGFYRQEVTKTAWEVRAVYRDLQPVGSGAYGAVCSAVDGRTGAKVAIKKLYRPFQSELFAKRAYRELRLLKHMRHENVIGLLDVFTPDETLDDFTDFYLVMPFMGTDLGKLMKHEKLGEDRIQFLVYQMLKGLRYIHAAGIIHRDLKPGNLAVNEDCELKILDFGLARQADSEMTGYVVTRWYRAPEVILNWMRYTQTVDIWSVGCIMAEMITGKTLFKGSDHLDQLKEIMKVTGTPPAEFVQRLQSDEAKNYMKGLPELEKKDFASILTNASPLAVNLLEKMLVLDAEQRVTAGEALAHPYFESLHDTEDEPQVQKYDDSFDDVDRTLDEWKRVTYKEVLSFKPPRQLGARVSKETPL

[24] = biological target: STE20-like serine/threonine-protein kinase (Homo sapiens) (UniProt Q9H2G2); experiment: SLK(h) Eurofins kinase panel; details: Compound concentration 1.0 uM
[25] = biological target: Serine/threonine-protein kinase 25 (Homo sapiens) (UniProt O00506); experiment: STK25(h) Eurofins kinase panel; details: Compound concentration 1.0 uM
[26] = biological target: TRAF2 and NCK-interacting protein kinase (Homo sapiens) (UniProt Q9UKE5); experiment: TNIK(h) Eurofins kinase panel; details: Compound concentration 1.0 uM
[27] = biological target: High affinity nerve growth factor receptor (Homo sapiens) (UniProt P04629); experiment: TrkA(h) Eurofins kinase panel; details: Compound concentration 1.0 uM
[28] = biological target: T3, Testis-specific serine/threonine-protein kinase 3 (Homo sapiens) (UniProt Q96PN8); experiment: TSSK3(h) Eurofins kinase panel; details: Compound concentration 1.0 uM
T3 sequence (whole entry): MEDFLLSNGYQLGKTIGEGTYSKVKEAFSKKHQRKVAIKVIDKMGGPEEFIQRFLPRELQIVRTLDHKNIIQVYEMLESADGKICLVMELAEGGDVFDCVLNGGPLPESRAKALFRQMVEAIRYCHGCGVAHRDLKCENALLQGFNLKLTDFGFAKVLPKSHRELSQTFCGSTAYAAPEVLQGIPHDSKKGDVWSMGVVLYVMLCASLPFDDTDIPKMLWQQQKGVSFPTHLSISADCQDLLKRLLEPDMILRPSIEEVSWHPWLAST

[29] = biological target: Tau-tubulin kinase 2 (Homo sapiens) (UniProt Q6IQ55); experiment: TTBK2(h) Eurofins kinase panel; details: Compound concentration 1.0 uM
[30] = biological target: Phosphatidylinositol 4,5-bisphosphate 3-kinase catalytic subunit gamma isoform (Homo sapiens) (UniProt P48736); experiment: PI3 Kinase (p120g)(h) Eurofins kinase panel; details: Compound concentration 1.0 uM
SW780 = experiment: SW780 cell line Proliferation assay; format: functional, Homo sapiens; details: time 3 day
U-251 = experiment: U251 cell line Proliferation assay; format: functional, Homo sapiens; details: time 3 day
A2780 = experiment: A2780 cell line Proliferation assay; format: functional, Homo sapiens; details: time 3 day
PANC-1 = experiment: PANC-1 cell line Proliferation assay; format: functional, Homo sapiens; details: time 3 day
PC-3 = experiment: PC-3 cell line Proliferation assay; format: functional, Homo sapiens; details: time 6 day
[31] = biological target: Serine/threonine-protein kinase 24 (Homo sapiens, UniProt Q9Y6E0); details: Compound concentration 1.0 uM

Chain of Phosphatidylinositol 4,5-bisphosphate 3-kinase catalytic subunit gamma isoform (Homo sapiens) (P48736 whole entry, looked up, canonical isoform): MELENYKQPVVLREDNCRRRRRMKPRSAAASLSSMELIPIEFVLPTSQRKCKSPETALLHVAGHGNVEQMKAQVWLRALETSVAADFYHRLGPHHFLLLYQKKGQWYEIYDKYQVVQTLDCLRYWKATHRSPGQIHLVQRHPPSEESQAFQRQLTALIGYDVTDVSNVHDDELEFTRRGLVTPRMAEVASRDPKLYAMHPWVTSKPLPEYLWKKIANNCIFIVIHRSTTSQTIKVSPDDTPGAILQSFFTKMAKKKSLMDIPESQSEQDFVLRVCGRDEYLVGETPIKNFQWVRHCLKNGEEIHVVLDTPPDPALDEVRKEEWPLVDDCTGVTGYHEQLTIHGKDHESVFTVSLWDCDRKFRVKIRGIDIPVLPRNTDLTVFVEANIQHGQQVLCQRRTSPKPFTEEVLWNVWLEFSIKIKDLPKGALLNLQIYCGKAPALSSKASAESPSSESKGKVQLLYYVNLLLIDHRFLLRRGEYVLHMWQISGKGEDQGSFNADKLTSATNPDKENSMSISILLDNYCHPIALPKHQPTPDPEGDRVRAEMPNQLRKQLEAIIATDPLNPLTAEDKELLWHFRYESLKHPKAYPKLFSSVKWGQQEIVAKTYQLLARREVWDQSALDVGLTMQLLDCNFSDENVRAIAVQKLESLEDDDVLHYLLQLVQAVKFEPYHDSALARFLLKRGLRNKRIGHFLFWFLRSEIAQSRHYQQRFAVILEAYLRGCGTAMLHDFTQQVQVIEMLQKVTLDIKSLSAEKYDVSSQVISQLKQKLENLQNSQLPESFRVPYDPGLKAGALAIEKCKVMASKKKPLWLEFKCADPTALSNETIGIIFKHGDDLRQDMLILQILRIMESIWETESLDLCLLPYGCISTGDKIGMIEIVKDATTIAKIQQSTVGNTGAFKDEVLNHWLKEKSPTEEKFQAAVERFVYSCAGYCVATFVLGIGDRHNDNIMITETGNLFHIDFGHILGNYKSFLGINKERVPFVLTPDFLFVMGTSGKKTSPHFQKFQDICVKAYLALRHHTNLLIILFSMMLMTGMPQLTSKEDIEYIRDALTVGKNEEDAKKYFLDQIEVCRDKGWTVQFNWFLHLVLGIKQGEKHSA
Chain of Protein-tyrosine kinase 6 (Homo sapiens) (Q13882 whole entry, looked up): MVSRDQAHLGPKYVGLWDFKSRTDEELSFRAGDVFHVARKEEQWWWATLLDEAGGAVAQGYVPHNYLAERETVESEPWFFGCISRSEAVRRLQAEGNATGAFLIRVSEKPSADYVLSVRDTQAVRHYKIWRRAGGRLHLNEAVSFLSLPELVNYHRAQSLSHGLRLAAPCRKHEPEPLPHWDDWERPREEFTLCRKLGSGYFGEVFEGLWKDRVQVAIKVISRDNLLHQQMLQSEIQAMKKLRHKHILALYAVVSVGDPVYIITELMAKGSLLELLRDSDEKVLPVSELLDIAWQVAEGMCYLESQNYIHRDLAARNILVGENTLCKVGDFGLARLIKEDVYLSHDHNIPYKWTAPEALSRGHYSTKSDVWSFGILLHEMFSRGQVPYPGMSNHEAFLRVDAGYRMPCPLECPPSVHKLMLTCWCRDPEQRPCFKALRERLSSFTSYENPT
Chain of Tyrosine-protein kinase JAK1 (Homo sapiens) (P23458 whole entry): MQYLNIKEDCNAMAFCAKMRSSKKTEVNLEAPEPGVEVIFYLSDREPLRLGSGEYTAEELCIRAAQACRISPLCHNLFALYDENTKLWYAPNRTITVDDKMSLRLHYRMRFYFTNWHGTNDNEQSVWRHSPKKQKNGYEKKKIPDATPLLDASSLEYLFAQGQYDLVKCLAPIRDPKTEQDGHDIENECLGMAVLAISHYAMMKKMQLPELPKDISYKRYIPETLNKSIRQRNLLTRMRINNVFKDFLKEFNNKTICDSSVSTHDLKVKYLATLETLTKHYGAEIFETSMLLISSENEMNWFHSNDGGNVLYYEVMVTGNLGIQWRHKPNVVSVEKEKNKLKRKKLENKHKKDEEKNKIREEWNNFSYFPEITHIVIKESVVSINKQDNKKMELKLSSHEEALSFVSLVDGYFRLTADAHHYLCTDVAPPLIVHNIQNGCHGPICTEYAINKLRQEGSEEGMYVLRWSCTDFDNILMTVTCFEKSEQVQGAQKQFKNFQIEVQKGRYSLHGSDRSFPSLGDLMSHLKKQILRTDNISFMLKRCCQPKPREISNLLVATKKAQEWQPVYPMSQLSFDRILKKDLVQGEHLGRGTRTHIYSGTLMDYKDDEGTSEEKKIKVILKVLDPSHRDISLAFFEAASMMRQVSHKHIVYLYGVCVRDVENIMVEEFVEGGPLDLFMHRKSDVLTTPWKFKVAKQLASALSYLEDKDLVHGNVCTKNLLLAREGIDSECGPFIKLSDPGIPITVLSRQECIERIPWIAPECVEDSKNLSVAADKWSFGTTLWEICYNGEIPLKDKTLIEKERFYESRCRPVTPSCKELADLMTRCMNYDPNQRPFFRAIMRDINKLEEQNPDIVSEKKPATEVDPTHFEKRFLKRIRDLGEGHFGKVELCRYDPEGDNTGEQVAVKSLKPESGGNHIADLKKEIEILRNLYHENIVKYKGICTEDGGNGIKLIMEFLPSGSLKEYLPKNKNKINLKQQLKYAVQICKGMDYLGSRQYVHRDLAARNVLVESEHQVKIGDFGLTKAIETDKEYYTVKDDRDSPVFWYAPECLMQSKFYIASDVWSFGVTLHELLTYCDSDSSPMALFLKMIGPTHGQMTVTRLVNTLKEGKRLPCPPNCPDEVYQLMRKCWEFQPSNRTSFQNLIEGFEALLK
Chain of Serine/threonine-protein kinase pim-1 (Homo sapiens) (P11309 whole entry, looked up): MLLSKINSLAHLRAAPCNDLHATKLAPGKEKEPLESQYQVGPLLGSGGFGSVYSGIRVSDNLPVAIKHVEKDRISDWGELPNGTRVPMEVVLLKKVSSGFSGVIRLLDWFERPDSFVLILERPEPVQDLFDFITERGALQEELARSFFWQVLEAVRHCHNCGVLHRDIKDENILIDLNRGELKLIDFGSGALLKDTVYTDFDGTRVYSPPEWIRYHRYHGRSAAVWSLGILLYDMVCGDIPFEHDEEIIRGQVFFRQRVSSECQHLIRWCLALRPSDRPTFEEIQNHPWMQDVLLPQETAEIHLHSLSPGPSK
Chain of High affinity nerve growth factor receptor (Homo sapiens) (P04629 33-796 limits assumed): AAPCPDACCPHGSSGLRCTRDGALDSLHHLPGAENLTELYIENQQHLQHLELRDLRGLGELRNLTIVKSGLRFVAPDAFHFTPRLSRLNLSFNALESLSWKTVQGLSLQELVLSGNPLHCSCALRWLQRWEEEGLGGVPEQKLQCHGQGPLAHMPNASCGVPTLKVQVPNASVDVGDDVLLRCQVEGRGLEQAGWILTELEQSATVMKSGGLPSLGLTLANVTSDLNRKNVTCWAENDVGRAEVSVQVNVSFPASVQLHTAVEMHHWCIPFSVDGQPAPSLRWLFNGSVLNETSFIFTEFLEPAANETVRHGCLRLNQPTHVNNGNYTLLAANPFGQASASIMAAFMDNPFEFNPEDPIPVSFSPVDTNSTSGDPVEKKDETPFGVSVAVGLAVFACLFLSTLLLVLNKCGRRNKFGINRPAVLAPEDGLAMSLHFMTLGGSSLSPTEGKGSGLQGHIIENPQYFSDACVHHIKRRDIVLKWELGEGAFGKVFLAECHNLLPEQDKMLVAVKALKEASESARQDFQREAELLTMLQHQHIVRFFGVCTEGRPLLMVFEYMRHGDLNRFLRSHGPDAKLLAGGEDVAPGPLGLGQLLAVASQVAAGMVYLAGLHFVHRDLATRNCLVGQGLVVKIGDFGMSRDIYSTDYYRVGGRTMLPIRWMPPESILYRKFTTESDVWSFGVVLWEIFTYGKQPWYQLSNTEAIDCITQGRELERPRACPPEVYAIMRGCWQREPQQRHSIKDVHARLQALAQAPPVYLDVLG
Chain of Tyrosine-protein kinase CSK (Homo sapiens) (P41240 2-450 limits assumed): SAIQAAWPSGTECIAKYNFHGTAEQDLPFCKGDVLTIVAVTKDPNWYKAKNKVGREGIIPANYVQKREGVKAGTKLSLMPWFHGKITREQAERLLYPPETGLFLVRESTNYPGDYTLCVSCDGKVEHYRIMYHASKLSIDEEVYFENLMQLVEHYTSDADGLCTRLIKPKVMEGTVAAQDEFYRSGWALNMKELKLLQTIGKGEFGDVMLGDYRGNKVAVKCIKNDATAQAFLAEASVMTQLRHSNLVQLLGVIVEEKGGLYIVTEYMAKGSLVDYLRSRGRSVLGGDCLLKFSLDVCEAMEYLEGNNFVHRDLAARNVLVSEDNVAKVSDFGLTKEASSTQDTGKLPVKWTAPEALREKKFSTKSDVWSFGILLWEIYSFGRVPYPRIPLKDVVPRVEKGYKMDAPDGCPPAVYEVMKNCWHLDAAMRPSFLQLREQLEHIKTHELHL
Chain of RAF proto-oncogene serine/threonine-protein kinase (Homo sapiens) (P04049 whole entry): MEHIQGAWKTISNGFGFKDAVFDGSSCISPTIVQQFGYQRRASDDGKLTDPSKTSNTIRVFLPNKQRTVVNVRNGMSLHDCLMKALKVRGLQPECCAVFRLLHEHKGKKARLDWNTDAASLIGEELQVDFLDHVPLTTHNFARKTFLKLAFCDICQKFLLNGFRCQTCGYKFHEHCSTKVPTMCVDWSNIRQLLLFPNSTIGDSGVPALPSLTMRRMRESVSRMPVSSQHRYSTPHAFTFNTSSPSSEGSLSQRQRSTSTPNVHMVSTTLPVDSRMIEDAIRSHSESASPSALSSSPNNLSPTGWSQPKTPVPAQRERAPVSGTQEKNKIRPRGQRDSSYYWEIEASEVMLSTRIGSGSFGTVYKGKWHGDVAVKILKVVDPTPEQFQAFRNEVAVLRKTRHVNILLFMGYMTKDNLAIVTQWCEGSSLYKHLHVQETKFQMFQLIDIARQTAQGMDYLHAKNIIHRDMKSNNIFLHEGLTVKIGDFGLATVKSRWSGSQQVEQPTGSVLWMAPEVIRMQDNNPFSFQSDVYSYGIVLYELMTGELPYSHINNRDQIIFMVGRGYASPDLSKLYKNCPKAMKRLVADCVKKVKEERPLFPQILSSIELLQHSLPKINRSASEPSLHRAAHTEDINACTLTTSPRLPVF

CC1=C(C#N)C(c2ccc3c(c2)c(NC(=O)c2ccccc2C)nn3C)C(C#N)=C(C)N1 [BAY-974] showed an inhibition [1] of 8.7%.
CCc1ccccc1C(=O)Nc1n[nH]c2c(C)c(F)c(C3C(C#N)=C(C)N(C)C(C)=C3C#N)cc12 [BAY-3827] gave a % residual kinase activity [2] of 101%, a % residual kinase activity [3] of 104% and a % residual kinase activity [4] of 92%. It also gave a % residual kinase activity [5] of 110%, a % residual kinase activity [6] of 106% and a % residual kinase activity [7] of 94%. It also gave a % residual kinase activity [8] of 101%, a % residual kinase activity [9] of 90% and a % residual kinase activity [10] of 99%. For the same compound, the % residual kinase activity [11] was 96%, the % residual kinase activity [12] was 107% and the % residual kinase activity [13] was 99%. The % residual kinase activity [14] was 101%, the % residual kinase activity [15] was 98% and the % residual kinase activity [16] was 110%. For the same compound, the % residual kinase activity [17] was 116%, the % residual kinase activity [18] was 91% and the % residual kinase activity [19] was 86%. The % residual kinase activity [20] was 119%, the % residual kinase activity [21] was 47% and the % residual kinase activity [22] was 100%. It also gave a % residual kinase activity [23] of 106%, a % residual kinase activity [24] of 101% and a % residual kinase activity [25] of 43%. The % residual kinase activity [26] was 49%, the % residual kinase activity [27] was 60% and the % residual kinase activity [28] was 110%. For the same compound, the % residual kinase activity [29] was 108%, the % residual kinase activity [30] was 99% and the “Cell Proliferation IC50” value (SW780) was 10.3 µM. The “Cell Proliferation IC50” value (U-251) was 20.9 µM, the “Cell Proliferation IC50” value (A2780) was over 33 µM and the “Cell Proliferation IC50” value (PANC-1) was 17.1 µM. For the same compound, the “Cell Proliferation IC50” value (PC-3) was over 10 µM and the % residual kinase activity [31] was 17%.
